According to PubChem BioAssay (NCI):
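1) Cells in 96-well plates. 2) Compound, 48 h, 5 concentrations. 3) Linear interpolation between surrounding doses. 4) Unreached endpoint = highest concentration. TGI is the concentration that stops growth completely.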

Key:
Assay in all cases: NCI-60 cell line screen, 48 h
HCT-116 colon = system: HCT-116 colon
BT-549 breast = system: BT-549 breast
LOX IMVI melanoma = system: LOX IMVI melanoma
HOP-92 NSCLC = system: HOP-92 NSCLC
RXF 393 renal = system: RXF 393 renal
COLO 205 colon = system: COLO 205 colon
PC-3 prostate = system: PC-3 prostate
EKVX NSCLC = system: EKVX NSCLC
MDA-N = system: MDA-N
CCRF-CEM leukemia = system: CCRF-CEM leukemia

Row | SMILES | TGI (HCT-116 colon) [µM] | TGI (BT-549 breast) [µM] | TGI (LOX IMVI melanoma) [µM] | TGI (HOP-92 NSCLC) [µM] | TGI (RXF 393 renal) [µM] | TGI (COLO 205 colon) [µM] | TGI (PC-3 prostate) [µM] | TGI (EKVX NSCLC) [µM] | TGI (MDA-N) [µM] | TGI (CCRF-CEM leukemia) [µM]
1 | O=C1C=C(c2ccccc2)O/C1=C/C(=O)c1ccc(Cl)cc1 | 30.6 | 30.1 | 26.1 | 44.9 | 34.7 | 30.1 | 27.3 | > 100 | 30.2 | > 100
2 | O=c1c2ccccc2nc(Nc2cccc(Cl)c2)n1/N=C/C=C/c1ccccc1 | > 100 | > 100 | > 100 | > 100 | > 100 | > 100 | 97.4 | > 100 | > 100 | > 100
3 | CC1(C)C=C(S(=O)(=O)c2ccccc2)Oc2ccccc2O1 | > 100 | > 100 | 57.6 | 67.5 | > 100 | 35.1 | > 100 | 73.4 | > 100 | > 100
4 | Nc1ccc(S(=O)(=O)Nc2nc3ccccc3nc2N2CCCCC2)cc1 | > 100 | > 100 | > 100 | > 100 | > 100 | > 100 | > 100 | > 100 | > 100 | > 100
5 | Cn1c([O-])nc(-n2cc[n+](C)c2)cc1=O | > 100 | > 100 | > 100 | > 100 | > 100 | > 100 | > 100 | > 100 | > 100 | > 100
6 | Cc1c2ncccc2cc2oc3ccccc3c(=O)c12 | > 100 | > 100 | > 100 | 92.7 | > 100 | > 100 | > 100 | > 100 | > 100 | > 100
7 | CC1(CNCc2ccccc2)CC(CCc2ccccc2)N(C(=O)c2ccc([N+](=O)[O-])cc2)C1Cc1ccc(O)cc1 (stereo not given) | 23.1 | 31.3 | 26.2 | 9.88 | 17.4 | 19.4 | 26.3 | 31 | 27.1 | > 100
8 | CC(=S)N=Cc1c(O)cc(C)oc1=O | > 100 | > 100 | > 100 | > 100 | > 100 | > 100 | > 100 | > 100 | > 100 | > 100
9 | O=c1oc2cc(O)ccc2c(O)c1C(c1ccc(C(c2c(O)c3ccc(O)cc3oc2=O)c2c(O)c3ccc(O)cc3oc2=O)cc1)c1c(O)c2ccc(O)cc2oc1=O | > 100 | > 100 | > 100 | > 100 | > 100 | > 100 | > 100 | > 100 | > 100 | > 100
10 | C=c1c(OC)c(OC)c(O)c2c1=c1cc([N+](=O)[O-])cc(OC)c1=N2 | > 100 | > 100 | > 100 | > 100 | > 100 | > 100 | > 100 | > 100 | > 100 | > 100
11 | CNC(=O)N(CCC#N)[C@H]1CCCC[C@@H]1N(C(=O)NC)c1ccccc1 | > 100 | > 100 | > 100 | > 100 | > 100 | > 100 | > 100 | > 100 | > 100 | > 100
12 | O=C(Nc1ccccc1C(=O)NCCCO)/C(=C/c1ccccc1O)NC(=O)c1ccccc1 | > 75.8 | 55.7 | > 100 | > 100 | > 86.8 | > 100 | > 100 | > 100 | > 100 | > 100
13 | Brc1ccc2c(-c3csc(-c4c[nH]c5cc(Br)ccc45)n3)c[nH]c2c1 | 32.3 | > 100 | > 57.1 | > 100 | 77.1 | > 100 | > 79.5 | > 100 | 13.4 | > 64.1
14 | Cc1cn(C(C)OCCN2C(=O)c3ccccc3C2=O)c(=O)[nH]c1=O (stereo not given) | > 100 | > 100 | > 100 | > 100 | > 100 | > 100 | > 100 | > 100 | > 100 | > 100
15 | CSc1nc2c(c(=O)n1C)N=C(c1ccccc1)[C@H](C(CC(=O)c1ccccc1)c1ccccc1)C(c1ccccc1)N2 (stereo not given in full) | > 100 | > 100 | > 100 | > 100 | > 100 | > 100 | > 100 | > 100 | > 100 | > 100
16 | Cc1cn([C@@H]2C[C@H]2CO)c(=O)[nH]c1=O | > 100 | > 100 | > 100 | > 100 | > 100 | > 100 | > 100 | > 100 | > 100 | > 100
17 | CC1(C)OCC2OC3([C@H]4OC(C)(C)O[C@@H]4CO)OC(C)(C)OC3C2O1 (stereo not given in full) | > 100 | > 100 | > 100 | > 100 | > 100 | > 100 | > 100 | > 100 | > 100 | > 100
